Measurements: patent publication US10421769B2, “Anticancer property studies of chiral palladium N-heterocyclic carbene complexes and process for preparation thereof” (Indian Institute of Technology Bombay, priority 2017, dated 2019)
Entries after “also recorded” stand apart in the source; their conditions may differ. Read-outs that look alike come from different tables or passages of the source.

What was measured:
MCF-7 cells [1] = experiment: Sulforhodamine B assay, proliferation of MCF-7 cells; assay type: cell-based, human; conditions: for IC50: MCF-7 breast cancer cells, one cell cycle (48 h), SRB
Protocol: (§1) The present invention further provides a Sulforhodamine B assay method for investigating the anti-cancer efficacies of the compounds of the present Pd—NHC series on MCF-7, HeLa, A549, B16-F10 and EMT6/AR1 cancer cell lines and also for a comparative study on normal skin cell line L929 and normal epithelial breast cells MCF10A. The said Sulforhodamine B assay is conducted as per reported method (Skehan et al., J. Natl. Cancer Inst. 1990, 82, 1107).
Experiment: The anti-proliferative activity of the present palladium N-heterocyclic carbene complexes on two different cancer cell lines MCF-7 and HeLa is tested using Sulforhodamine B assay to reveal their anti-tumor properties. The evaluation of growth inhibition of these complexes is done from their IC50 values for the inhibition of cell growth. The IC50 values are compared with Cisplatin to determine any increase in efficacy.
Method: The effects of present series of palladium N-heterocyclic carbene complexes, such as compounds (1S,2S,5R)-(1-3)b and (1R,2R,5S)-(1-3)b; (1S,2S,5R)-(1, 3)c and (1R,2R,5S)-(1, 3)c on the proliferation of MCF-7 cells after one cell cycle are determined by Sulforhodamine B assay. In particular, 1×10^5 cells/mL are seeded in each well in 96-well plates for 24 h and then incubated without or with different concentrations of these complexes at 37° C. for one cell cycle (48 h). After incubation of cells with the complexes for one cell cycle, cell growth is stopped by the addition of 50% trichloroacetic acid and stained with 0.4% sulforhodamine B dissolved in 1% acetic acid. Unbound dye is removed by washing with 1% acetic acid, and the protein content is determined by measuring absorbance at 520 nm in a Bio-Rad model 680 microplate reader after extracting with 10 mM tris base. IC50 value is calculated as the concentration of the complex that inhibited the proliferation of cells by 50% relative to the untreated control cells. The anticancer activities of the present Pd—NHC compounds are graphically represented in accompanying FIG. 1.
The data obtained is graphically represented in accompanying FIG. 2.

EMT6/AR1 cells = experiment: Sulforhodamine B assay, multidrug resistant EMT6/AR1 cells; assay type: cell-based, mouse; conditions: EMT6/AR1 multidrug resistant mammary cancer cells, SRB
Protocol: as §1

MCF10A cells = experiment: Sulforhodamine B assay, normal epithelial breast cells MCF10A (selectivity); assay type: cell-based; conditions: MCF10A IC50 against MCF-7 IC50
Protocol: as §1

MCF-7 cells [2] = experiment: Live dead assay by flow cytometry using propidium iodide; assay type: cell-based, human; conditions: for Dead % / Live %: 48 h
Protocol: MCF-7 cells (5 mL) were seeded in 60 mm cell culture dishes at a density of 1.5×10^5 cells/mL. Cells were incubated with 4 and 8 μM (1R,2R,5S)-1c for 48 h for live dead assay. After the required incubation, cells were processed and analyzed by flow cytometry. Percentage of live and dead MCF-7 cells in the absence and presence of 4 and 8 μM (1R,2R,5S)-1c and 4 μM cisplatin was determined by flow cytometry using propidium iodide (PI).

PARP-1 in MCF-7 cells = experiment: Western blot analysis for PARP cleavage; assay type: cell-based, human; conditions: MCF-7, 4 and 8 μM, 48 h; cisplatin 4 μM as comparison
Protocol: Experiment: MCF-7 cells (5 mL) were seeded at a density of 1.5×10^5 cells/mL in 60 mm cell culture dishes. After cell attachment, they were incubated with 4 and 8 μM (1R,2R,5S)-1c and 4 μM cisplatin for 48 h. The cells were then processed and the whole cell lysate was isolated. An equal amount of total protein was resolved on SDS-PAGE and electroblotted onto a PVDF membrane (Millipore). Immunoblotting was performed using specific antibodies against PARP-1 and β-actin. The blots were developed by chemiluminescence using HRP conjugated secondary IgG.

γ-H2AX in MCF-7 cells = experiment: Immunofluorescence microscopy for DNA damage (γ-H2AX); assay type: cell-based, human; conditions: MCF-7, 4 and 8 μM, 36 h; cisplatin 4 μM as comparison
Protocol: Experiment: MCF-7 (5×10^4 cells/well) cells were seeded on glass cover slip in a 24 well cell culture plate. After the cell were attached, they were incubated with 4 and 8 μM (1R,2R,5S)-1c and 4 μM cisplatin for 36 h, fixed with 3.7% formaldehyde and processed for immunostaining. After fixing, cells were blocked with 2% BSA and incubated with anti-γ H2AX IgG (1:200) for 2 h at 37° C. followed by Alexa flour 555 goat anti-rabbit secondary IgG (1:400) for 1 h at 37° C. Hoechst 33258 was used to stain the DNA. Immunofluorescence imaging was performed using iPlan-apochromat 40×/1.3 NA oil immersion objective in Confocal Laser Scanning microscope. Image J software was used to calculate the fluorescence intensity. 500 cells were scored in each case.

[3] = system: intracellular ROS in MCF-7 cells; experiment: Reactive oxygen species (ROS) assay using H2DCFDA, flow cytometry; assay type: cell-based, human; conditions: 24 h
Protocol: Experiment: Reactive oxygen species (ROS) production in cells when treated with (1R,2R,5S)-1c, was estimated by ROS assay using 2′,7′-dichlorodihydrofluorescein diacetate (H2DCFDA). MCF-7 cells (5 mL) were seeded in 60 mm cell culture dishes at a density of 1.5×10^5 cells/mL. After cell attachment, they were incubated with 4 and 8 μM (1R,2R,5S)-1c for 24 h. Cells treated with 30 μM hydrogen peroxide was used as a positive control. Following 24 h of incubation, the cells were processed and analyzed using flow cytometry. The percentage of DCFH-DA positive MCF-7 cells in the absence and presence 4 and 8 μM (1R,2R,5S)-1c was determined by flow cytometry. 30 μM H2O2 was used as a positive control. Data are average of three independent set of experiments and ±indicates S.D.

MCF-7 cells [4] = experiment: Cell cycle analysis by flow cytometry (PI); assay type: cell-based, human; conditions: 36 h
Protocol: Experiment: MCF-7 cells (5 mL) were seeded in 60 mm cell culture dishes at a density of 1.5×10^5 cells/mL. The cells were incubated with 2 and 4 μM (1R,2R,5S)-1c for 36 h for cell cycle analysis. After the required incubation, cells were processed and analyzed by flow cytometry. Cell cycle data was analyzed using Flow Jo software. Cell cycle analysis and mitotic indices of MCF-7 cells in the absence and presence 2 and 4 μM (1R,2R,5S)-1c. Cell cycle analysis was done using flow cytometer after incubating the cells with PI. The data was analyzed using Flow Jo software. Data were average of three independent set of experiments with S.D (±). Mitotic index (percentage of cells in mitosis) was calculated based on DNA morphology of cells stained with Hoechst 33258. Data were average of three independent set of experiments with S.D (±). 1000 cells were scored in each set.

trans-[1-(1R)-menthyl-4-(ethyl)-1,2,4-triazol-5-ylidene]2Pd(OCOCF3)2 [(1R,2R,5S)-1c]
IC50 of Cisplatin against MCF-7 as multiple of IC50 of the complex (MCF-7 cells [1]; MCF-7): 27 times | IC50 (MCF-7 cells [1]; read-out: IC50 (μM), MCF-7): 0.55 ± 0.02 µM | IC50 (MCF-7 cells [1]; unit nM printed in cell or sentence, read-out: IC50, MCF-7 (values given in nM)): 0.55 ± 0.02 µM | IC50 (EMT6/AR1 cells): 4.8 ± 0.3 µM | times more selective towards the cancer cells (MCF-7 vs MCF10A) (MCF10A cells): around 16 times | Cell death (in words) (MCF-7 cells [2]; MCF-7): leads to cell death in MCF-7 cells | Dead % (MCF-7 cells [2]; MCF-7, 4 μM): 41 ± 2% | Live % (MCF-7 cells [2]; MCF-7, 4 μM): 59 ± 2% | Dead % (MCF-7 cells [2]; MCF-7, 8 μM): 90 ± 1% | Live % (MCF-7 cells [2]; MCF-7, 8 μM): 10 ± 1% | PARP cleavage (in words) (PARP-1 in MCF-7 cells): more pronounced than cisplatin; also recorded: cleaves PARP in MCF-7 cells | DNA damage, γ-H2AX immunostaining (in words) (γ-H2AX in MCF-7 cells): stronger DNA damaging effect on MCF-7 cells than cisplatin; also recorded: more DNA damage than compared to Cisplatin; also recorded: causes DNA damage in MCF-7 cells | % of DCFH-DA positive cells ([3]; MCF-7, 4 μM): 49 ± 11% | % of DCFH-DA positive cells ([3]; MCF-7, 8 μM): 74 ± 1% | Intracellular ROS generation (in words) ([3]; MCF-7, 4 and 8 μM): leads ROS production in cells; also recorded: ROS is generated in MCF-7 cells | % of cells in different phases of cell cycle: G1 (MCF-7 cells [4]; MCF-7, 2 μM): 30 ± 2% | % of cells in different phases of cell cycle: G2/M (MCF-7 cells [4]; MCF-7, 2 μM): 35 ± 2% | % of cells in different phases of cell cycle: S (MCF-7 cells [4]; MCF-7, 2 μM): 31 ± 2% | % of cells in different phases of cell cycle: G1 (MCF-7 cells [4]; MCF-7, 4 μM): 18 ± 2% | % of cells in different phases of cell cycle: G2/M (MCF-7 cells [4]; MCF-7, 4 μM): 50 ± 2% | % of cells in different phases of cell cycle: S (MCF-7 cells [4]; MCF-7, 4 μM): 32 ± 3% | Cell cycle block (in words) (MCF-7 cells [4]; MCF-7, 2 and 4 μM): blocks MCF-7 cells at the G2 phase; also recorded: blocked cells at the G2/M phase
